Test results as given in US7786114B2, “Bis-azaindole derivatives, preparation and pharmaceutical use thereof as kinase inhibitors” (Aventis Pharma S.A., priority 2004, dated 2010).

Row | melting point [°C] | SMILES
1 | 140 to 145 | COc1cc2c(nc1OC)c(-c1cc3c(Cl)c(F)cnc3[nH]1)cn2CCCN1CCCN(C)CC1 [Example 13, 3-(4-Chloro-5-fluoro-1H-pyrrolo[2,3-b]pyridin-2-yl)-5,6-dimethoxy-1-[3-(4-methylperhydro-1,4-diazepin-1-yl)propyl]-1H-pyrrolo[3,2-b]pyridine]
2 | 218 | COc1cc2c(nc1OC)c(-c1cc3cc(F)cnc3[nH]1)cn2CCN1CCOCC1 [Example 7, 3-(5-fluoro-1H-pyrrolo[2,3-b]pyridin-2-yl)-5,6-dimethoxy-1-(2-morpholin-4-ylethyl)-1H-pyrrolo[3,2-b]pyridine]
3 | 189 | COc1cc2c(nc1OC)c(-c1cc3c(Cl)c(F)cnc3[nH]1)cn2CCCN1CCOCC1 [Example 14, 3-(4-Chloro-5-fluoro-1H-pyrrolo[2,3-b]pyridin-2-yl)-5,6-dimethoxy-1-(3-morpholin-4-ylpropyl)-1H-pyrrolo[3,2-b]pyridine]
4 | 110 to 114 | COc1cc2c(nc1OC)c(-c1cc3c(Cl)c(F)cnc3[nH]1)cn2CCCN1CCCCC1 [Example 11, 3-[4-Chloro-5-fluoro-1H-pyrrolo[2,3-b]pyridin-2-yl]-5,6-dimethoxy-1-(3-piperidin-1-ylpropyl)-1H-pyrrolo[3,2-b]pyridine]
5 | 206 | COc1cc2c(nc1OC)c(-c1cc3c(Cl)c(F)cnc3[nH]1)cn2CCN1CCOCC1 [Example 8, 3-(4-chloro-5-fluoro-1H-pyrrolo[2,3-b]pyridin-2-yl)-5,6-dimethoxy-1-(2-morpholin-4-yl-ethyl)-1H-pyrrolo[3,2-b]pyridine]
6 | 135 | COc1cc2c(nc1OC)c(-c1cc3c(Cl)c(F)cnc3[nH]1)cn2CCCN1CCC(CN)CC1 [Example 15, C-(1-{3-[3-(4-Chloro-5-fluoro-1H-pyrrolo[2,3-b]pyridin-2-yl)-5,6-dimethoxypyrrolo[3,2-b]pyridin-1-yl]propyl}piperidin-4-yl)methylamine]
7 | 155 | COc1cc2c(nc1OC)c(-c1cc3c(Cl)c(F)cnc3[nH]1)cn2CCCN1CCN(C)CC1 [Example 16, 3-(4-Chloro-5-fluoro-1H-pyrrolo[2,3-b]pyridin-2-yl)-5,6-dimethoxy-1-[3-(4-methylpiperazin-1-yl)propyl]-1H-pyrrolo[3,2-b]pyridine]
8 | 283 to 284 | COc1cc2[nH]cc(-c3cc4c(Cl)c(F)cnc4[nH]3)c2nc1OC [Example 9, 3-[4-Chloro-5-fluoro-1H-pyrrolo[2,3-b]pyridin-2-yl]-5,6-dimethoxy-1H-pyrrolo[3,2-b]pyridine]
9 | 188 | COc1cc2c(nc1OC)c(-c1cc3c(Cl)c(F)cnc3[nH]1)cn2CCCN1CCC(O)CC1 [Example 12, 1-{3-[3-(4-Chloro-5-fluoro-1H-pyrrolo[2,3-b]pyridin-2-yl)-5,6-dimethoxypyrrolo[3,2-b]pyridin-1-yl]propyl}piperidin-4-ol]
